Source: ChEMBL document CHEMBL5223094, “Recent advancements in chromone as a privileged scaffold towards the development of small molecules for neurodegenerative therapeutics” (RSC Med Chem, 2022)

How the values were obtained:
[1] = biological target: Amyloid-beta precursor protein (Homo sapiens) (UniProt P05067); assay: Inhibition of amyloid beta (1 to 42) (unknown origin) aggregation at 50 uM incubated for 24 hrs by ThT fluorometric assay
[2] = biological target: Acetylcholinesterase (Electrophorus electricus, UniProt O42275); assay: Inhibition of electric eel AChE using acetylthiocholine iodide as substrate preincubated for 15 mins followed by substrate addition by Ellman's method
Acetylcholinesterase (Electrophorus electricus, UniProt O42275), sequence (O42275 whole entry): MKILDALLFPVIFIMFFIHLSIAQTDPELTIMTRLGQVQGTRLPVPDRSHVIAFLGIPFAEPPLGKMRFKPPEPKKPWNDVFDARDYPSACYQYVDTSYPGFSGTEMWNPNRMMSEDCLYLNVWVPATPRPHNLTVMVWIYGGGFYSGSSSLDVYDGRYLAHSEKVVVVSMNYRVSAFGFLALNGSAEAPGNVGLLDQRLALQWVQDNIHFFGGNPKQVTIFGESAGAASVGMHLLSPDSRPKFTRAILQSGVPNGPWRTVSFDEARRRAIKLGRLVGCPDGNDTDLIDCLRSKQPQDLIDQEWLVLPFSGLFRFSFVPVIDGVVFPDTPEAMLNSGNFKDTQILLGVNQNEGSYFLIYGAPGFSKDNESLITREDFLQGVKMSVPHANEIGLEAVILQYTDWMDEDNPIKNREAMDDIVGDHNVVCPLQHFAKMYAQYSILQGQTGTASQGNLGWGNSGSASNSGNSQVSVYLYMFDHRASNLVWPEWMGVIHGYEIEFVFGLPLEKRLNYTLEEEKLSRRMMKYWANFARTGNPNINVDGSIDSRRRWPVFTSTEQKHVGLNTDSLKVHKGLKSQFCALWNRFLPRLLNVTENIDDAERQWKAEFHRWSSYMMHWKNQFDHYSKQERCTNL

[3] = biological target: Cholinesterase (Equus caballus, UniProt P81908); assay: Inhibition of equine serum BuChE using butyrylthiocholine chloride as substrate preincubated for 15 mins followed by substrate addition by Ellman's method
Cholinesterase (Equus caballus, UniProt P81908), sequence (P81908 whole entry): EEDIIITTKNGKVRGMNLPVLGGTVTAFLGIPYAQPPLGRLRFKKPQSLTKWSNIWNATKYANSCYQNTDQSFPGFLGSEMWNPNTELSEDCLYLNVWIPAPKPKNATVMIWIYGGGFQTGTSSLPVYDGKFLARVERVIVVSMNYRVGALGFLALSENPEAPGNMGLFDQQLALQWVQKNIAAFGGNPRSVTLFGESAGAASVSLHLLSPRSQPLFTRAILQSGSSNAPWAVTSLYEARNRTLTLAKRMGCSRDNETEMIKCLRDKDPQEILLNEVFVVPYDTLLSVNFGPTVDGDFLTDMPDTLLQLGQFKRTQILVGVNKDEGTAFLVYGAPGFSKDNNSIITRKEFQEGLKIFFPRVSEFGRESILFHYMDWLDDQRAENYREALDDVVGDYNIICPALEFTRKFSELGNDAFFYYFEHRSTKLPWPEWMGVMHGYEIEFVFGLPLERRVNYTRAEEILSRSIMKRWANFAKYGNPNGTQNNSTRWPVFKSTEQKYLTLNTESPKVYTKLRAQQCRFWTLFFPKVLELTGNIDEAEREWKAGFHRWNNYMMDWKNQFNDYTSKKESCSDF

[4] = biological target: Amyloid-beta precursor protein (Homo sapiens) (UniProt P05067); assay: Inhibition of self-induced amyloid beta (1 to 42) (unknown origin) aggregation at 10 uM incubated for 48 hrs by ThT fluorometric assay
[5] = biological target: Amyloid-beta precursor protein (Homo sapiens) (UniProt P05067); assay: Inhibition of electric eel AChE-indued amyloid beta (1 to 42) (unknown origin) aggregation at 100 uM incubated for 24 hrs by ThT fluorometric assay
[6] = Selectivity index, ratio of Ki for displacement of [3H](+)-pentazocine from human sigma 1 receptor expressed in human HEK293 cells to Ki for displacement of (+)-[3H]DTG from rat sigma 2 receptor; format: cell-based
[7] = system: SH-SY5Y; assay: Neuroprotective activity against 6-OHDA-induced cell death in human SH-SY5Y cells assessed as cell viability; format: functional, cell-based
[8] = biological target: Acetylcholinesterase (Homo sapiens, UniProt P22303); assay: Inhibition of AChE (unknown origin) using acetylthiocholine iodide as substrate preincubated for 20 mins followed by substrate addition by Ellman's method
Acetylcholinesterase (Homo sapiens, UniProt P22303), sequence (P22303 whole entry): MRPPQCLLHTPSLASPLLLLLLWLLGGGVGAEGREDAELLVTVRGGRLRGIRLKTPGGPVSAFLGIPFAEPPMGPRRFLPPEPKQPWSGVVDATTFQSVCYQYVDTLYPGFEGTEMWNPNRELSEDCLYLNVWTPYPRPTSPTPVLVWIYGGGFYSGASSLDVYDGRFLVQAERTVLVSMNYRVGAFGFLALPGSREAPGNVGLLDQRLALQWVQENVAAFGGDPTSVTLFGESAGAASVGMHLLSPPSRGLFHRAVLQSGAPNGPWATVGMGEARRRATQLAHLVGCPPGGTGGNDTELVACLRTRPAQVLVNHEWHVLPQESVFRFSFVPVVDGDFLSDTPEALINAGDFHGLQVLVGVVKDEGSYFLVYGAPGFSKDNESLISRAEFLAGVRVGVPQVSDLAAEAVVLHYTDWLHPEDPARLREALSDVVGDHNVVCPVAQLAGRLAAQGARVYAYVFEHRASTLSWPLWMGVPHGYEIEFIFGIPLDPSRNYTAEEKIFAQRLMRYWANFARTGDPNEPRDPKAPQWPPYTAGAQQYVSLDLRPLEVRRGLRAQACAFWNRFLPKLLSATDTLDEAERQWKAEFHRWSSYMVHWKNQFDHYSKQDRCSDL

[9] = biological target: Cholinesterase (Homo sapiens, UniProt P06276); assay: Inhibition of BuChE (unknown origin) using butyrylthiocholine iodide as substrate preincubated for 20 mins followed by substrate addition by Ellman's method
Cholinesterase (Homo sapiens, UniProt P06276), sequence (P06276 whole entry): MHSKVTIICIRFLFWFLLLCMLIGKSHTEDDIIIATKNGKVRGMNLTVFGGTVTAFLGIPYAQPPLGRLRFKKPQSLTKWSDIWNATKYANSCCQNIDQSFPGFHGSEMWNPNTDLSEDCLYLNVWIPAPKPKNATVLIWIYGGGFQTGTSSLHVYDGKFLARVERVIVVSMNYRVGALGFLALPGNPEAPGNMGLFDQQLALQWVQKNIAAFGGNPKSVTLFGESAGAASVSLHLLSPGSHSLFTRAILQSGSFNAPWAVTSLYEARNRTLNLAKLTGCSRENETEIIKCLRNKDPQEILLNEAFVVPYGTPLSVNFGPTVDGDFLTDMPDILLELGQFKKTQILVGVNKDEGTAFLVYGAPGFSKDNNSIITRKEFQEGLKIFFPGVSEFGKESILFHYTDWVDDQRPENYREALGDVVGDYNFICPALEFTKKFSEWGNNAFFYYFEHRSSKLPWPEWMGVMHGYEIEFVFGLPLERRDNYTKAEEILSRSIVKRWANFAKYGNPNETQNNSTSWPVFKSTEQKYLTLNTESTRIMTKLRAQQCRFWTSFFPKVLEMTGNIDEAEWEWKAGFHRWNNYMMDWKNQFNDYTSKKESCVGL

[10] = species on record: Homo sapiens; assay: Selectivity index, ratio of IC50 for inhibition of MAO-B (unknown origin) to IC50 for inhibition of MAO-A (unknown origin)
[11] = biological target: T1, Amine oxidase [flavin-containing] B (Homo sapiens, UniProt P27338); assay: Inhibition of MAO-B (unknown origin)
T1 sequence (P27338 whole entry): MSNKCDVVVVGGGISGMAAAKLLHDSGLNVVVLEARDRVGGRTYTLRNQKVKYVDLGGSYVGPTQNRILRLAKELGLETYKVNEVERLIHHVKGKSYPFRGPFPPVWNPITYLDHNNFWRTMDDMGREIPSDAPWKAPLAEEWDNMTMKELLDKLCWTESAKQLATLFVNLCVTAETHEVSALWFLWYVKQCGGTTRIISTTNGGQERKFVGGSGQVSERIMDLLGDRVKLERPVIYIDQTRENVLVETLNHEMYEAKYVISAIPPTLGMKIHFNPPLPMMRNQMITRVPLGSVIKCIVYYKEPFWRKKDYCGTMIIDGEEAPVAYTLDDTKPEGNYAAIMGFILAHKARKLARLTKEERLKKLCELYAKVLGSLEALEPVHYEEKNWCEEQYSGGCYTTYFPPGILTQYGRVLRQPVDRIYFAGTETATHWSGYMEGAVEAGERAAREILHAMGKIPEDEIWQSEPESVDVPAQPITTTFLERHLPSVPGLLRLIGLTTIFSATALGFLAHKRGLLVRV

[12] = biological target: T1, Amine oxidase [flavin-containing] B; assay: Inhibition of recombinant human MAO-B using kynuramine as substrate preincubated for 10 mins followed by enzyme addition and measured after 20 mins by fluorescent microplate reader analysis
[13] = species on record: Homo sapiens; assay: Selectivity index, ratio of IC50 for inhibition of recombinant human MAO-B to IC50 for inhibition of recombinant human MAO-A
[14] = biological target: T1, Amine oxidase [flavin-containing] B; assay: Inhibition of human MAO-B using tyramine as substrate preincubated for 10 mins followed by substrate addition and measured after 30 mins by fluorometric method
[15] = species on record: Homo sapiens; assay: Selectivity index, ratio of IC50 for inhibition of human MAO-B to IC50 for inhibition of human MAO-A

Amyloid-beta precursor protein (Homo sapiens), sequence (P05067 whole entry): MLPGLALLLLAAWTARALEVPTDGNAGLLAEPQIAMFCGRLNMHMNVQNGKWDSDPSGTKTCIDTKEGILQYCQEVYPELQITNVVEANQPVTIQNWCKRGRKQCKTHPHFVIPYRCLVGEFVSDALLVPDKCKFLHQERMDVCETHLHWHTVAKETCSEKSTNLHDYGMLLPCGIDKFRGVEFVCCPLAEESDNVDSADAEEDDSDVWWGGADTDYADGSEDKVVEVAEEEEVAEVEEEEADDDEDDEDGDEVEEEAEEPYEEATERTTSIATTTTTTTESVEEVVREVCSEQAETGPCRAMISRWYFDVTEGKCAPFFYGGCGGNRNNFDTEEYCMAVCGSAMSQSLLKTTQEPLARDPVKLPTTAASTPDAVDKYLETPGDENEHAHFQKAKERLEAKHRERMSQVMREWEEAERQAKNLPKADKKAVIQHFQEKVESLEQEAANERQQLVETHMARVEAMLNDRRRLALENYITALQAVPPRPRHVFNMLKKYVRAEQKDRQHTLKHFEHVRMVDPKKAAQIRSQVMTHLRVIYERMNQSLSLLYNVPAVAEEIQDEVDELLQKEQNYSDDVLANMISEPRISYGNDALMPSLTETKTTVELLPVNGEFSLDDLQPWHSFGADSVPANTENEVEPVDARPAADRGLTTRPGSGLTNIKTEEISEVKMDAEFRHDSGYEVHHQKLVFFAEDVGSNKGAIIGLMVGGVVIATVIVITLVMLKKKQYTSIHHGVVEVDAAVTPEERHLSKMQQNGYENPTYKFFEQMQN

With COc1cccc2oc3c(c(=O)c12)[C@H](O)CC3 the inhibition [1] was 74%.

CCc1cc[n+](CCCOc2ccc3c(=O)cc(-c4ccc(OC)cc4)oc3c2)cc1 showed an IC50 [2] of 3000 nM, an IC50 [3] of 700 nM and an inhibition [4] of 32%. For the same compound, the inhibition [5] was 37%.

O=c1ccoc2ccc(OCCCCCN3CCOCC3)cc12 showed a Ratio Ki [6] of 130.

In the case of COCOc1cc2occ(-c3ccc(OC)cc3)c(=O)c2c2c1CC(O)C(C)(C)O2 (stereo unspecified), the EC50 [7] is reported as 500 nM.

For O=c1cc(-c2ccc(Cl)cc2)oc2cc(OCCCC[n+]3ccccc3)ccc12, the IC50 [2] was 6 nM, the IC50 [3] was 2000 nM and the inhibition [4] was 28%. For the same compound, the inhibition [5] was 22%.

O=c1c(O)c(-c2ccccc2)oc2cc(Br)c(I)cc12 gave an IC50 [8] of 10000 nM and an IC50 [9] of 6000 nM.

With O=c1cc(-c2ccc(Cl)cc2)oc2ccc(Cn3cc(Oc4cccc(O)c4)nn3)cc12 the Ratio IC50 [10] was > 14.

For COc1ccc2c(=O)c(N3CCN(c4ccccc4)CC3)coc2c1, the IC50 [11] was 15 nM, the IC50 [12] was 15 nM and the Ratio IC50 [13] was > 6700.

In the case of COc1ccc2c(=O)cc(-n3ccc4ccccc43)oc2c1, the IC50 [12] is reported as 150 nM and the Ratio IC50 [13] is reported as > 670.

With COc1ccc(NC(=O)c2c(OCc3ccccc3)ccc3c(=O)c(C)c(C)oc23)cc1 the IC50 [14] was 100 nM and the Ratio IC50 [15] was 324.
